We go through 32 compounds from patent US10344025B2, “GLS1 inhibitors for treating disease” (Board of Regents, The University of Texas System, priority 2014, dated 2019).

pIC50: −log10 of the molar value.

The target of this assay is purified recombinant human GAC (GLS1) (Homo sapiens (Human), UniProt O94925). The assay can be described thus: GLS1 Enzymatic Activity Assay (dual-coupled enzymatic assay, resorufin/Amplex UltraRed readout).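 Note: glutamate from GAC coupled via glutamate oxidase and peroxidase to resorufin, read as fluorescence (ex 530, em 590 nm) kinetically or at 20 min, four-parameter logistic IC50 fit.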 Type of assay: biochemical.
Chain of purified recombinant human GAC (GLS1) (O94925 other isoform, or with tags, fused parts or gaps): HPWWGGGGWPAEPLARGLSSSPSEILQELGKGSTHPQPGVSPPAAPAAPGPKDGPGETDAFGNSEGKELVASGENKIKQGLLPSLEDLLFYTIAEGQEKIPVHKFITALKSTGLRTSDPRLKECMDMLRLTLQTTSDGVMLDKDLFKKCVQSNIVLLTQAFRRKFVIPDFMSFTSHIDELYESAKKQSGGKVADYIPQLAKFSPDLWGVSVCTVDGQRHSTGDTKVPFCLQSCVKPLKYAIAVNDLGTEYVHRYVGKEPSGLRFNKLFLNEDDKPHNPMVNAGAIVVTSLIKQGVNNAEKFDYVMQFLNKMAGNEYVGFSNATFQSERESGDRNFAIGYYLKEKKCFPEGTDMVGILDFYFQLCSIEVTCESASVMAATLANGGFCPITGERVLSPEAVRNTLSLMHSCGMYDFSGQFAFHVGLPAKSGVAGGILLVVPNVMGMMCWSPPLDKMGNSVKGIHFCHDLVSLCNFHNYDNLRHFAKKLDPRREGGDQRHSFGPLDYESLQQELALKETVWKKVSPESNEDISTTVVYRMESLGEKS

The term pIC50 denotes the IC50 on a negative log10 scale, so that one unit is a factor of ten. Take `CC(C)(C)OC(=O)N1CCC(Cn2cc(CCCCn3cc(C(=O)NCc4cccc(OC(F)(F)F)c4)nn3)nn2)CC1` [Example 8, Tert-butyl 4-((4-(4-(4-(3-(trifluoromethoxy)benzylcarbamoyl)-1H-1,2,3-triazol-1-yl)butyl)-1H-1,2,3-triazol-1-yl)methyl)piperidine-1-carboxylate]: the negative logarithm of the IC50 (pIC50) was 6.30 to 7.00. With `CS(=O)(=O)NCc1cn(CCCCn2cc(C(=O)NCc3cccc(OC(F)(F)F)c3)nn2)nn1` [Example 9, 1-(4-(4-(Methylsulfonamidomethyl)-1H-1,2,3-triazol-1-yl)butyl)-N-(3-(trifluoromethoxy)benzyl)-1H-1,2,3-triazole-4-carboxamide] the figure was 5.30 to 6.30; with `CC(C)NC(=O)c1cn(CCCCc2nnc(NC(=O)Cc3cccc(OC(F)(F)F)c3)s2)nn1` [Example 10, N-(propan-2-yl)-1-[4-(5-{2-[3-(trifluoromethoxy)phenyl]acetamido}-1,3,4-thiadiazol-2-yl)butyl]-1H-1,2,3-triazole-4-carboxamide], 6.30 to 7.00; with `O=C(Cc1ccccc1)Nc1nnc(CCCCn2cc(C(=O)NCCN3CCC(O)CC3)nn2)s1` [Example 14, N-[2-(4-hydroxypiperidin-1-yl)ethyl]-1-{4-[5-(2-phenylacetamido)-1,3,4-thiadiazol-2-yl]butyl}-1H-1,2,3-triazole-4-carboxamide], 5.30 to 6.30. With `CC(C)NC(=O)c1nnc(CCCCn2cc(C(=O)NCc3ccccc3)nn2)s1` [Example 38, 5-{4-[4-(benzylcarbamoyl)-1H-1,2,3-triazol-1-yl]butyl}-N-(propan-2-yl)-1,3,4-thiadiazole-2-carboxamide], the pIC50 was 5.30 to 6.30. With `O=C(NCc1ccccc1)c1cn(CCCCc2nnc(C(=O)NCc3ccccn3)s2)nn1` [Example 40, 5-{4-[4-(benzylcarbamoyl)-1H-1,2,3-triazol-1-yl]butyl}-N-(pyridin-2-ylmethyl)-1,3,4-thiadiazole-2-carboxamide] the figure was 6.30 to 7.00. With `CC(C)(C)OC(=O)N1CCC(Cn2cc(CCCCn3cc(C(=O)NCc4cccc(OC(F)(F)F)c4)nn3)nn2)CC1` [Example 53] the figure was 5.30 to 6.30; with `CC(C)CCNCc1cn(CCCCn2cc(C(=O)NCc3cccc(OC(F)(F)F)c3)nn2)nn1` [Example 57, 1-(4-(4-((isopentylamino)methyl)-1H-1,2,3-triazol-1-yl)butyl)-N-(3-(trifluoromethoxy)benzyl)-1H-1,2,3-triazole-4-carboxamide], 5.30 to 6.30. With `CCC(=O)NCc1cn(CCCCn2cc(C(=O)NCc3cccc(OC(F)(F)F)c3)nn2)nn1` [Example 58, 1-(4-(4-(propionamidomethyl)-1H-1,2,3-triazol-1-yl)butyl)-N-(3-(trifluoromethoxy)benzyl)-1H-1,2,3-triazole-4-carboxamide] the figure was 5.30 to 6.30; with `O=C(NCc1ccccn1)c1cn(CCCCc2nnc(C(=O)NCc3ccccn3)s2)nn1` [Example 66, N-(pyridin-2-ylmethyl)-5-(4-{4-[(pyridin-2-ylmethyl)carbamoyl)-1H-1,2,3-triazol-1-yl}butyl)-1,3,4-thiadiazole-2-carboxamide], 5.30 to 6.30. Regarding `Cc1ccc(CNC(=O)c2nnc(CCCCn3cc(C(=O)NCc4ccccn4)nn3)s2)cn1` [Example 67, N-[(6-methylpyridin-3-yl)methyl]-5(4-{4-[(pyridin-2-ylmethyl)carbamoyl]-1H-1,2,3-triazol-1-yl}butyl)-1,3,4-thiadiazole-2-carboxamide], the pIC50 was 6.30 to 7.00.

Consider `O=C(NCc1ccccn1)c1cn(CCCCc2nnc(C(=O)NCC3CC3)s2)nn1` [Example 68, N-(cyclopropylmethyl)-5-(4-{4-[(pyridin-2-ylmethyl)carbamoyl]-1H-1,2,3-triazol-1-yl}butyl)-1,3,4-thiadiazole-2-carboxamide], for which the pIC50 was 5.30 to 6.30. With `O=C(NCC1CC1)c1cn(CCCCc2nnc(C(=O)NCc3ccccn3)s2)nn1` [Example 69, 5-(4-{4-[(cyclopropylmethyl)carbamoyl]-1H-1,2,3-triazol-1-yl}butyl)-N-(pyridin-2-ylmethyl)-1,3,4-thiadiazole-2-carboxamide] the figure was 5.30 to 6.30; with `Cc1ccc(CNC(=O)c2nnc(CCCCn3cc(C(=O)NCC4CC4)nn3)s2)cn1` [Example 70, 5-(4-{4-[(cyclopropylmethyl)carbamoyl]-1H-1,2,3-triazol-1-yl}butyl)-N-[(6-methylpyridin-3-yl)methyl]-1,3,4-thiadiazole-2-carboxamide], 5.30 to 6.30. Turning to `O=C(NCc1ccccn1)c1cn(CCCCn2cc(C(=O)NCc3ccccn3)nn2)nn1` [Example 71, N-(pyridin-2-ylmethyl)-1-(4-{4-[(pyridin-2-ylmethyl)carbamoyl]-1H-1,2,3-triazol-1-yl}butyl)-1H-1,2,3-triazole-4-carboxamide], the pIC50 is 5.30 to 6.30. As for `Cc1ccc(CNC(=O)c2cn(CCCCc3nnc(C(=O)NCC4CN(C(=O)OC(C)(C)C)C4)s3)nn2)cn1` [Example 74, tert-butyl 3-[({5-[4-(4-{[(6-methylpyridin-3-yl)methyl]carbamoyl}-1H-1,2,3-triazol-1-yl)butyl]-1,3,4-thiadiazol-2-yl}formamido)methyl] azetidine-1-carboxylate], the pIC50 is 6.30 to 7.00. With `O=C(CC1CC1)Nc1cn(CCCCn2cc(C(=O)NCc3ccccn3)nn2)nn1` [Example 278, 1-{4-[4-(2-cyclopropylacetamido)-1H-1,2,3-triazol-1-yl]butyl}-N-(pyridin-2-ylmethyl)-1H-1,2,3-triazole-4-carboxamide] the figure was 5.30 to 6.30.

`O=C(CC1CC1)Nc1cn(CCCCn2cc(C(=O)NCC3CCCCC3)nn2)nn1` [Example 281, N-(cyclohexylmethyl)-1-{4-[4-(2-cyclopropylacetamido)-1H-1,2,3-triazol-1-yl]butyl}-1H-1,2,3-triazole-4-carboxamide]: the pIC50 is 5.30 to 6.30. With `O=C(CC1CCCC1)Nc1cn(CCCCn2cc(C(=O)NCC3CCCCC3)nn2)nn1` [Example 282, N-(cyclohexylmethyl)-1-{4-[4-(2-cyclopentylacetamido)-1H-1,2,3-triazol-1-yl]butyl}-1H-1,2,3-triazole-4-carboxamide] the figure was 5.30 to 6.30; with `O=C(CC1CCCCC1)Nc1cn(CCCCn2cc(C(=O)NCC3CCCCC3)nn2)nn1` [Example 283, 1-{4-[4-(2-cyclohexylacetamido)-1H-1,2,3-triazol-1-yl]butyl}-N-(cyclohexylmethyl)-1H-1,2,3-triazole-4-carboxamide], 5.30 to 6.30; with `O=C(CC1CC1)Nc1cn(CCCCn2cc(C(=O)NCC3CCCC3)nn2)nn1` [Example 287, N-(cyclopentylmethyl)-1-{4-[4-(2-cyclopropylacetamido)-1H-1,2,3-triazol-1-yl]butyl}-1H-1,2,3-triazole-4-carboxamide], 5.30 to 6.30. Take `O=C(CC1CCCCC1)Nc1cn(CCCCn2cc(C(=O)NCC3CCCC3)nn2)nn1` [Example 289, 1-{4-[4-(2-cyclohexylacetamido)-1H-1,2,3-triazol-1-yl]butyl}-N-(cyclopentylmethyl)-1H-1,2,3-triazole-4-carboxamide]: the pIC50 was 5.30 to 6.30. As for `O=C(Cc1cccnc1)Nc1cn(CCCCn2cc(C(=O)NCC3CCCC3)nn2)nn1` [Example 290, N-(cyclopentylmethyl)-1-(4-{4-[2-(pyridin-3-yl)acetamido]-1H-1,2,3-triazol-1-yl}butyl)-1H-1,2,3-triazole-4-carboxamide], the negative logarithm of the IC50 (pIC50) was 5.30 to 6.30. `O=C(Cc1ccccn1)Nc1cn(CCCCn2cc(C(=O)NCC3CCCC3)nn2)nn1` [Example 291, N-(cyclopentylmethyl)-1-(4-{4-[2-(pyridin-2-yl)acetamido]-1H-1,2,3-triazol-1-yl}butyl)-1H-1,2,3-triazole-4-carboxamide]: the negative logarithm of the IC50 (pIC50) was 5.30 to 6.30. With `O=C(Cc1ccccn1)Nc1cn(CCCCn2cc(C(=O)NCc3ccccn3)nn2)nn1` [Example 297, 1-[4-[4-[[2-(2-pyridyl)acetyl]amino]triazol-1-yl]butyl]-N-(2-pyridylmethyl)triazole-4-carboxamide] the figure was 5.30 to 6.30. Regarding `O=C(Cc1cccnc1)Nc1cn(CCCCn2cc(C(=O)NCc3ccccn3)nn2)nn1` [Example 298, N-(pyridin-2-ylmethyl)-1-(4-{4-[2-(pyridin-3-yl)acetamido]-1H-1,2,3-triazol-1-yl}butyl)-1H-1,2,3-triazole-4-carboxamide], the pIC50 was 5.30 to 6.30. On to `O=C(Cc1ccccn1)Nc1cn(CCCCn2cc(C(=O)NCC3CC3)nn2)nn1` [Example 302, N-(cyclopropylmethyl)-1-(4-{4-[2-(pyridin-2-yl)acetamido]-1H-1,2,3-triazol-1-yl}butyl)-1H-1,2,3-triazole-4-carboxamide], for which the negative logarithm of the IC50 (pIC50) was 5.30 to 6.30. With `O=C(Cc1cccnc1)Nc1cn(CCCCn2cc(C(=O)NCC3CC3)nn2)nn1` [Example 303, N-(cyclopropylmethyl)-1-(4-{4-[2-(pyridin-3-yl)acetamido]-1H-1,2,3-triazol-1-yl}butyl)-1H-1,2,3-triazole-4-carboxamide] the figure was 5.30 to 6.30; with `O=C(CC1CCCC1)Nc1cn(CCCCn2cc(C(=O)NCC3CC3)nn2)nn1` [Example 304, 1-{4-[4-(2-cyclopentylacetamido)-1H-1,2,3-triazol-1-yl]butyl}-N-(cyclopropylmethyl)-1H-1,2,3-triazole-4-carboxamide], 5.30 to 6.30. With `O=C(CC1CC1)Nc1cn(CCCCn2cc(C(=O)NCc3cccnc3)nn2)nn1` [Example 308, 1-{4-[4-(2-cyclopropylacetamido)-1H-1,2,3-triazol-1-yl]butyl}-N-(pyridin-3-ylmethyl)-1H-1,2,3-triazole-4-carboxamide] the figure was 5.30 to 6.30; with `O=C(CN1CC(F)(F)C1)Nc1cn(CCCCn2cc(C(=O)NCc3ccccn3)nn2)nn1` [Example 323, 1-(4-{4-[2-(3,3-difluoroazetidin-1-yl)acetamido]-1H-1,2,3-triazol-1-yl}butyl)-N-(pyridin-2-ylmethyl)-1H-1,2,3-triazole-4-carboxamide], 5.30 to 6.30. With `O=C(CN1CC(F)C1)Nc1cn(CCCCn2cc(C(=O)NCc3ccccn3)nn2)nn1` [Example 324, 1-(4-{4-[2-(3-fluoroazetidin-1-yl)acetamido]-1H-1,2,3-triazol-1-yl}butyl)-N-(pyridin-2-ylmethyl)-1H-1,2,3-triazole-4-carboxamide] the figure was 5.30 to 6.30.
